Measurements from patent publication US7202280B2, “Methods for the treatment and prevention of pancreatitis and for induction of liver regeneration” (priority 2002, dated 2007).
Several values for one entry are separate records, joined by “and”; a condition that tells them apart may be missing. Equal values may be shown once.

Experiments:
[1] = test system: syngenic and transgenic rats; test: Pancreatic SSAT activity and polyamine pools after zinc and methylspermidine; format: in vivo, rat
Description: FIGS. 1a-1d. Pancreatic polyamine pools in syngenic and transgenic rats after zinc and methylspermidine. […] Three to five animals in each group. Me-spd, methylspermidine. The production of transgenic Wistar rats (UKUR30) and mice (UKU181) harboring metallothionein-SSAT fusion gene (Suppola, […]., Porter, C. W., and Jänne, J. (1999) Biochem. […] (2000) Proc. Natl. Acad. Sci. U.S.A. 97, 8290-8295; Lukkarinen, […]., and Alhonen, L. (1997) Stroke 28, 639-645). Partial hepatectomy was carried out according to the original method of Higgins and Anderson (Higgins, G. H., and Anderson, R. M. (1931) Arch. Pathol. 12, 186-202). Treatments before partial hepatectomy and the determination of DNA synthesis were carried out as in ([…]., Suppola, […]., and […]. Biol. Chem. 277, 39867-39872). Transgenic 10 weeks old male rats were injected twice with MDL72527 (50 mg/kg i.p.) at 16-h interval to inactivate PAO according to (Bolkenius, F. N., Bey, P., and Seiler, N. (1985) Biochim. Biophys. […] An aliquot of the homogenates was used for the polyamine assays. The homogenates were centrifuged (at 13 000×g, for 30 min, at 4° C.) and the supernatants were used for the enzyme activity assays. The Institutional Animal Care and Use Committee of the University of Kuopio and by the Provincial Government approved animal experiments. […] Merck (Darmstadt, Germany). […] The changes in pancreatic polyamine pools in response to zinc and methylspermidine are depicted in FIG. 1. […] The various treatments only marginally altered pancreatic putrescine pools (FIG. 1a). […] FIG. 1d depicts the accumulation of the analogue in the pancreas after a single dose or two doses.

[2] = test system: SSAT transgenic rats (UKUR30); test: Treatment of zinc induced acute pancreatitis in SSAT transgenic rats: survival and severity (histology, plasma amylase, mortality); format: in vivo, rat; set-up: key to Edema: 0 (absent); 1 (minimal); 4 (maximal); conditions: for Edema / Necr. / P-amyl: single animals
Description: Formalin-fixed pancreatic specimens were embedded in paraffin, cut into 5-μm-thick slices, and stained with hematoxylin/eosin. The stained sections were coded and scored by the participating gastroenterologist (K.-H. H.) according to the method of Niederau et al. (Niederau, C., Liddle, R. A., Ferrell, L. D., and Grendell, J. H. (1986) J. Clin. Invest. 78, 1056–1063).
(§1) Transgenic UKUR30 female rats (weighting about 200 g) were used for the experiments. Pancreatitis was initiated with zinc 10 mg/kg treatment. Experiments were separated in five different parts (Exp. 1–5). Animals treated with α-MeSPD received 50 mg/kg i.p at the indicated time point(s). The pooled data from all of the experiment is shown in tables 4 A/B/C/D. First histological signs of pancreatic failure were evident within 6 h after the zinc. Pancreatic failure steadily increases until 24 hours when the first animals died. Within 48 hours mortality was almost 70% in control zinc treated rats.
(§2) Tables 4 A/B/C/D present the natural course of zinc induced pancreatitis. Histological scoring along with plasma amylase activity is shown as a measure of severity of pancreatitis. Tissue zinc and polyamine levels and SSAT activity were determined to verify the response of each animal to the treatment. No other data than the number of death animals is shown from deceased animals. Transgenic UKUR30 female rats weighting about 200 grams were used for the experiment. Zinc was injected i.p. 10 mg/kg to initiate acute pancreatitis. Animals treated with MeSpd received one 50 mg/kg dosage i.p. at the indicated time point(s). At indicated time points live animals were sacrificed and pancreas was subjected to further analysis. […] Values for polyamines are expressed as pmoles/mg/wet weight. SSAT pmoles/10 min/mg wet weight.

[3] = test system: SSAT transgenic rats (UKUR30); test: Pancreatic zinc, SSAT activity and polyamine levels in zinc induced pancreatitis treated with MeSpd; format: in vivo; conditions: single animals
Description: as §1, with “rats. […].” for “rats.”
as §2

[4] = Zn 24 h, MeSpd 50 mg/kg i.p. at 3 h/8 h
[5] = Zn 24 h, MeSpd 50 mg/kg i.p. at 6 h/12 h
[6] = Zn 24 h, MeSpd 50 mg/kg i.p. at 12 h
[7] = Zn 48 h, MeSpd 50 mg/kg i.p. at 3 h/8 h
[8] = Zn 48 h, MeSpd 50 mg/kg i.p. at 4 h/24 h
[9] = Zn 48 h, MeSpd 50 mg/kg i.p. at 12 h/24 h

CC(N)CCNCCCCN (stereo not drawn) [α-methylspermidine, 1-methylspermidine]
accumulation of the analogue in the pancreas ([1]; single dose or two doses of 50 mg/kg): effectively accumulated in the pancreas apparently with no further metabolism | SSAT activity, Pancreas ([1]; syngenic rats, zinc 10 mg/kg with methylspermidine 50 mg/kg): did not influence SSAT activity | SSAT activity, Pancreas ([1]; transgenic rats, analogue with zinc vs zinc alone): only slightly increased SSAT activity | Pancreatic spermidine pool ([1]; transgenic rats, zinc 10 mg/kg): little effect on zinc-induced depletion of spermidine | Edema [2, 4]: 0 (2×) and 2 (2×) | Necr. [2, 4]: 0 (0, 0–5%) (2×) and 3 (3, 35–50%) and 4 (4, >50%) | P-amyl [2, 4]: 2743 U/l and 20380 U/l and 11420 U/l and 2801 U/l | Edema [2, 5]: 0 (3×) and 1 (2×) and 2 (2×) and 3 and 4 | Necr. [2, 5]: 0 (0, 0–5%) (4×) and 4 (4, >50%) (4×) and 2 (2, 15–35%) | P-amyl [2, 5]: 2686 U/l and 2153 U/l and 2572 U/l and 30970 U/l and 42250 U/l and 30860 U/l and 28400 U/l and 5110 U/l and 25050 U/l | Edema [2, 6]: 1 and 2 (2×) and 3 | Necr. [2, 6]: 0 (0, 0–5%) and 4 (4, >50%) (2×) and 3 (3, 35–50%) | P-amyl [2, 6]: 3048 U/l and 17170 U/l and 31310 U/l and 18960 U/l | Mortality % ([2]; Zn 24 h, MeSpd treatment yes): 0% | Number of death animals ([2]; Zn 24 h, MeSpd treatment yes, 17 animals): 0 | Edema [2, 7]: 3 (2×) and 2 | Necr. [2, 7]: 4 (4, >50%) | P-amyl [2, 7]: 5867 U/l and 5117 U/l and 29880 U/l | Edema [2, 8]: 0 (3×) and 1 and 3 | Necr. [2, 8]: 0 (0, 0–5%) (4×) and 4 (4, >50%) | P-amyl [2, 8]: 1924 U/l and 2740 U/l and 2908 U/l and 2591 U/l and 3943 U/l | Edema [2, 9]: 3 (2×) and 0 and 2 | Necr. [2, 9]: 4 (4, >50%) (3×) and 0 (0, 0–5%) | P-amyl [2, 9]: 86840 U/l and 2693 U/l and 36470 U/l and 3382 U/l | Mortality % ([2]; Zn 48 h, MeSpd treatment yes): 8% | MeSpd (pancreas) [3, 4]: 1943 pmoles/mg/wet weight and 1425 pmoles/mg/wet weight and 907 pmoles/mg/wet weight and 0 pmoles/mg/wet weight | N^1AcSpd (pancreas) [3, 4]: 54 pmoles/mg/wet weight and 58 pmoles/mg/wet weight and 31 pmoles/mg/wet weight and 0 pmoles/mg/wet weight | PU (pancreas) [3, 4]: 3231 pmoles/mg/wet weight and 2820 pmoles/mg/wet weight and 2269 pmoles/mg/wet weight and 2159 pmoles/mg/wet weight | SPD (pancreas) [3, 4]: 1165 pmoles/mg/wet weight and 265 pmoles/mg/wet weight and 119 pmoles/mg/wet weight and 3405 pmoles/mg/wet weight | SPM (pancreas) [3, 4]: 299 pmoles/mg/wet weight and 128 pmoles/mg/wet weight and 69 pmoles/mg/wet weight and 441 pmoles/mg/wet weight | SSAT (pancreas) [3, 4]: 50 pmoles/10 min/mg wet weight and 91 pmoles/10 min/mg wet weight and 100 pmoles/10 min/mg wet weight and 18 pmoles/10 min/mg wet weight | MeSpd (pancreas) [3, 5]: 2268 pmoles/mg/wet weight and 3242 pmoles/mg/wet weight and 3098 pmoles/mg/wet weight and 745 pmoles/mg/wet weight and 798 pmoles/mg/wet weight and 954 pmoles/mg/wet weight and 834 pmoles/mg/wet weight and 1993 pmoles/mg/wet weight and 728 pmoles/mg/wet weight | N^1AcSpd (pancreas) [3, 5]: 113 pmoles/mg/wet weight and 45 pmoles/mg/wet weight and 43 pmoles/mg/wet weight and 66 pmoles/mg/wet weight and 71 pmoles/mg/wet weight and 98 pmoles/mg/wet weight and 134 pmoles/mg/wet weight and 20 pmoles/mg/wet weight and 59 pmoles/mg/wet weight | PU (pancreas) [3, 5]: 6768 pmoles/mg/wet weight and 6932 pmoles/mg/wet weight and 4915 pmoles/mg/wet weight and 2335 pmoles/mg/wet weight and 1932 pmoles/mg/wet weight and 2401 pmoles/mg/wet weight and 1911 pmoles/mg/wet weight and 3790 pmoles/mg/wet weight and 1935 pmoles/mg/wet weight | SPD (pancreas) [3, 5]: 478 pmoles/mg/wet weight and 1114 pmoles/mg/wet weight and 1297 pmoles/mg/wet weight and 108 pmoles/mg/wet weight and 96 pmoles/mg/wet weight and 105 pmoles/mg/wet weight and 84 pmoles/mg/wet weight and 1096 pmoles/mg/wet weight and 100 pmoles/mg/wet weight | SPM (pancreas) [3, 5]: 213 pmoles/mg/wet weight and 431 pmoles/mg/wet weight and 408 pmoles/mg/wet weight and 41 pmoles/mg/wet weight and 54 pmoles/mg/wet weight (2×) and 50 pmoles/mg/wet weight and 276 pmoles/mg/wet weight and 46 pmoles/mg/wet weight | SSAT (pancreas) [3, 5]: 1403 pmoles/10 min/mg wet weight and 37 pmoles/10 min/mg wet weight and 40 pmoles/10 min/mg wet weight and 10372 pmoles/10 min/mg wet weight and 3866 pmoles/10 min/mg wet weight and 5823 pmoles/10 min/mg wet weight and 6216 pmoles/10 min/mg wet weight and 1024 pmoles/10 min/mg wet weight and 5748 pmoles/10 min/mg wet weight | MeSpd (pancreas) [3, 6]: 1113 pmoles/mg/wet weight and 371 pmoles/mg/wet weight and 333 pmoles/mg/wet weight and 334 pmoles/mg/wet weight | N^1AcSpd (pancreas) [3, 6]: 16 pmoles/mg/wet weight and 57 pmoles/mg/wet weight and 65 pmoles/mg/wet weight and 42 pmoles/mg/wet weight | PU (pancreas) [3, 6]: 5328 pmoles/mg/wet weight and 3361 pmoles/mg/wet weight and 2782 pmoles/mg/wet weight and 3116 pmoles/mg/wet weight | SPD (pancreas) [3, 6]: 1360 pmoles/mg/wet weight and 124 pmoles/mg/wet weight and 153 pmoles/mg/wet weight and 126 pmoles/mg/wet weight | SPM (pancreas) [3, 6]: 479 pmoles/mg/wet weight and 47 pmoles/mg/wet weight and 61 pmoles/mg/wet weight and 45 pmoles/mg/wet weight | SSAT (pancreas) [3, 6]: 29 pmoles/10 min/mg wet weight and 6855 pmoles/10 min/mg wet weight and 4852 pmoles/10 min/mg wet weight and 6866 pmoles/10 min/mg wet weight | MeSpd (pancreas) [3, 7]: 646 pmoles/mg/wet weight and 1043 pmoles/mg/wet weight and 768 pmoles/mg/wet weight | N^1AcSpd (pancreas) [3, 7]: 43 pmoles/mg/wet weight and 21 pmoles/mg/wet weight and 29 pmoles/mg/wet weight | PU (pancreas) [3, 7]: 1538 pmoles/mg/wet weight and 1268 pmoles/mg/wet weight and 649 pmoles/mg/wet weight | SPD (pancreas) [3, 7]: 367 pmoles/mg/wet weight and 313 pmoles/mg/wet weight and 148 pmoles/mg/wet weight | SPM (pancreas) [3, 7]: 119 pmoles/mg/wet weight and 90 pmoles/mg/wet weight and 51 pmoles/mg/wet weight | SSAT (pancreas) [3, 7]: 92 pmoles/10 min/mg wet weight and 82 pmoles/10 min/mg wet weight and 90 pmoles/10 min/mg wet weight | MeSpd (pancreas) [3, 8]: 1066 pmoles/mg/wet weight and 2249 pmoles/mg/wet weight and 1415 pmoles/mg/wet weight and 1041 pmoles/mg/wet weight and 1493 pmoles/mg/wet weight | N^1AcSpd (pancreas) [3, 8]: 0 pmoles/mg/wet weight | PU (pancreas) [3, 8]: 1522 pmoles/mg/wet weight and 2416 pmoles/mg/wet weight and 1960 pmoles/mg/wet weight and 1744 pmoles/mg/wet weight and 1896 pmoles/mg/wet weight | SPD (pancreas) [3, 8]: 1344 pmoles/mg/wet weight and 1052 pmoles/mg/wet weight and 1928 pmoles/mg/wet weight and 2533 pmoles/mg/wet weight and 369 pmoles/mg/wet weight | SPM (pancreas) [3, 8]: 238 pmoles/mg/wet weight and 254 pmoles/mg/wet weight and 339 pmoles/mg/wet weight and 557 pmoles/mg/wet weight and 112 pmoles/mg/wet weight | SSAT (pancreas) [3, 8]: 10 pmoles/10 min/mg wet weight and 28 pmoles/10 min/mg wet weight and 17 pmoles/10 min/mg wet weight and 8 pmoles/10 min/mg wet weight and 75 pmoles/10 min/mg wet weight | MeSpd (pancreas) [3, 9]: 452 pmoles/mg/wet weight and 1053 pmoles/mg/wet weight and 560 pmoles/mg/wet weight and 629 pmoles/mg/wet weight | N^1AcSpd (pancreas) [3, 9]: 70 pmoles/mg/wet weight and 51 pmoles/mg/wet weight and 49 pmoles/mg/wet weight and 42 pmoles/mg/wet weight | PU (pancreas) [3, 9]: 889 pmoles/mg/wet weight and 7496 pmoles/mg/wet weight and 1078 pmoles/mg/wet weight and 1345 pmoles/mg/wet weight | SPD (pancreas) [3, 9]: 79 pmoles/mg/wet weight and 1571 pmoles/mg/wet weight and 165 pmoles/mg/wet weight and 456 pmoles/mg/wet weight | SPM (pancreas) [3, 9]: 35 pmoles/mg/wet weight and 422 pmoles/mg/wet weight and 61 pmoles/mg/wet weight and 141 pmoles/mg/wet weight | SSAT (pancreas) [3, 9]: 548 pmoles/10 min/mg wet weight and 42 pmoles/10 min/mg wet weight and 4391 pmoles/10 min/mg wet weight and 2001 pmoles/10 min/mg wet weight
